Assay results as given in ChEMBL document CHEMBL1146148, “Hydroxyl radical scavenging by edaravone derivatives: Efficient scavenging by 3-methyl-1-(pyridin-2-yl)-5-pyrazolone with an intramolecular base” (Bioorg Med Chem Lett, 2006).
pIC50: −log10 of the molar value.

Assay: Hydroxyl radical scavenging activity by ESR spin-trapping method
Format: functional

Work on `CC1=NN(c2ccccc2)C(=O)C1C(=O)c1ccccc1` (stereo not drawn) yielded a pIC50 of 3.21.
For `O=C1CC(C(F)(F)F)=NN1c1ccccc1`, the pIC50 was 3.09.
`CC1=NN(c2ccccn2)C(=O)C1` gave a pIC50 of 4.74.
With `CC1=NN(c2ccccc2)C(=O)C1` [EDARAVONE] the pIC50 was 3.60.
For `CC1=NN(c2ccccc2)C(=O)C1C1CC1` (stereo not drawn), the pIC50 was 3.14.
For `O=C(NC1=NN(c2ccccc2)C(=O)C1)Oc1ccccc1`, the pIC50 was 3.42.
Work on `CC1=NN(c2ccc([N+](=O)[O-])cc2)C(=O)C1` yielded a pIC50 of 3.30.
For `CC1=NN(c2ccccc2)C(=O)C1c1ccccc1` (stereo not drawn), the pIC50 was 3.10.
